These results are taken from patent publication US12583858B2 (Genentech, Inc., priority 2015, dated 2026).

Assay [1] addresses T1, IDO (Homo sapiens, UniProt P14902).
T1 construct: selective against A172+IFNg cells (high IDO expressing cells)
As to the kind of experiment: IDO cell assay (NFK GreenScreen, A172+IFNg cells). The format is cell-based. Particulars: A172 cells + 100 ng/ml IFNγ (high IDO expressing), 100 uM tryptophan, 24 hours; TDO selectivity table; read-out: IDO cell Fluor EC50. The procedure: Cells are counted on a Vi-Cell (Beckman Coulter). […] The final DMSO concentration is 0.5%.
Compounds of the invention were tested for selectivity against TDO over IDO. The cell based assay described above was used to test for TDO and IDO activity.

Assay [2] has as its target T2, TDO2 (Homo sapiens, UniProt P48775).
T2 construct: decreased levels of NFK in SW48 cells (high TDO expressing cells)
As to the kind of experiment: TDO2 cell assay (NFK GreenScreen, SW48 cells). It counts as cell-based. The following applies: SW48 cells (high TDO expressing).
Protocol: The NFK GreenScreen™ (NTRC, Netherlands) uses a specific chemical probe that binds to N-Formylkynurenine (NFK), a product of tryptophan catabolism facilitated by IDO or TDO and causes fluorescence at 510 nm when excited at 410 nm. […] The assay is multiplexed with Cell Titer-Glo® (Promega) to determine if compounds are cytotoxic. […] Cells are counted on a Vi-Cell (Beckman Coulter). SW48 cells are diluted to 1×10^6 cells/ml in assay media. A172 cells are diluted to 0.24×10^6 cells/ml in assay media. […] 5 ul of assay media containing 1.2 mM tryptophan are added to the SW48 cells for a final concentration of 200 uM tryptophan in each well. 5 ul of assay media containing 600 uM tryptophan and 600 ng/ml IFNγ are added to the A172 cells for a final concentration of 100 uM tryptophan and 100 ng/ml IFNγ in each well. The final DMSO concentration is 0.5%. Cell plates are placed at room temperature in a closed TC hood with the blower off to allow cells to settle for approximately 30 min. Plates are then moved to an incubator set at 37° C., 5% CO2 for 24 hours. After the 24 hour compound incubation, 8 ul of NFK green reagent is added to each well with a Multidrop™ Combi dispenser (Thermo Scientific). Plates are sealed and incubated at 37° C., 5% CO2 for 5 hours, then read on a PHERAstar® (BMG labtech). Data are analyzed by normalizing to DMSO and high inhibitor controls. After the plates have been read for NFK green, 25 ul of Cell Titer-Glo® (Promega) are added to each well, incubated for 15 minutes at room temperature, and read on the Envision (Perkin Elmer). Cell Titer-Glo data are analyzed by normalizing to the DMSO controls. Four-parameter curve fitting is used and EC50 data are reported.

Setting [3] is: 200 uM tryptophan, 24 hours, Table 3, read-out: TDO2 Cell Fluor EC50.
Setting [4] is: TDO selectivity table, read-out: TDO2 cell Fluor EC50.

pEC50: −log10 of the molar value. Read-outs that look alike come from different tables or passages of the source.

T2 sequence (P48775 whole entry): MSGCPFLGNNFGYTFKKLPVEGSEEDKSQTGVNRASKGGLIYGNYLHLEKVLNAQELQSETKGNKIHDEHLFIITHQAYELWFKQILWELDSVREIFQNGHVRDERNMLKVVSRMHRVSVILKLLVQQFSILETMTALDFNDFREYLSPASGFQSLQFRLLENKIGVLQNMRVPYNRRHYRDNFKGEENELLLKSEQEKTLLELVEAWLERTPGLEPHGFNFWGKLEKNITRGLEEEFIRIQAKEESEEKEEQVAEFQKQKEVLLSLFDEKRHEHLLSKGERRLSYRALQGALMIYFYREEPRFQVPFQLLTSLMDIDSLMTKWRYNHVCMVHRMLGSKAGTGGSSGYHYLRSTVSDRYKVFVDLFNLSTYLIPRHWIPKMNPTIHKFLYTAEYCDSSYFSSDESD
T1 sequence (P14902 whole entry): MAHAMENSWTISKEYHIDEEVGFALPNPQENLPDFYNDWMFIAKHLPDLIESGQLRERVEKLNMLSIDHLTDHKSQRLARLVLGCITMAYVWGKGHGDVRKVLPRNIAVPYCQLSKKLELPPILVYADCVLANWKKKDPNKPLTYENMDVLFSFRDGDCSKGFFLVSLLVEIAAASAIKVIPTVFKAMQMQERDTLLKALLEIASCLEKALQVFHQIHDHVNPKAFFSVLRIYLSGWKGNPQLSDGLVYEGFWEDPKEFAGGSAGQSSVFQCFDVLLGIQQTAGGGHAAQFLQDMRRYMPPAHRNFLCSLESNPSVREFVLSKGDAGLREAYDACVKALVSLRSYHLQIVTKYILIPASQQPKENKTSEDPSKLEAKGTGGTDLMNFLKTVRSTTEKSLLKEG

The term pEC50 denotes the negative decadic logarithm of the EC50, by convention in mol/L. Consider `CCS(=O)(=O)N1CC[C@@H]([C@H]2c3ccccc3-c3cncn32)[C@H](O)C1` [Example 16a, (3S,4S)-1-(ethylsulfonyl)-4-((S)-5H-imidazo[5,1-a]isoindol-5-yl)piperidin-3-ol], for which the pEC50 in assay [1] was 5.92; in assay [2] (setting [3]), 6.96; in assay [2] (setting [4]), 6.96.

With `NC(=O)c1ccc2c(c1)CC[C@@H]([C@H]1c3ccccc3-c3cncn31)[C@@H]2O` [Example 60e, (5S,6S)-5-hydroxy-6-((S)-5H-imidazo[5,1-a]isoindol-5-yl)-5,6,7,8-tetrahydronaphthalene-2-carboxamide], the negative logarithm of the EC50 (pEC50) in assay [1] is 5.85; in assay [2] (setting [3]), 7.46; in assay [2] (setting [4]), 7.46.

For `NS(=O)(=O)c1ccc2c(c1)CCC(C1c3ccccc3-c3cncn31)C2O` (single isomer, unassigned) [Example 100g], the results for the negative logarithm of the EC50 (pEC50) in assay [1], in assay [2] (setting [3]) and in assay [2] (setting [4]) were 5.77, 7.24 and 7.24, respectively.

Turning to `OC1C(C2c3ccc(F)cc3-c3cncn32)CC12CCOCC2` (single isomer, unassigned) [Example 109c], the negative logarithm of the EC50 (pEC50) in assay [1] was less than 4.60; in assay [2] (setting [3]), 6.64; in assay [2] (setting [4]), 6.64.

For the compound `NC(=O)c1ccc2c(c1)C(O)C(C1c3ccccc3-c3cncn31)CC2` (single isomer, unassigned) [Example 122a], the pEC50 was 5.59 in assay [1], 7.46 in assay [2] (setting [3]) and 7.46 in assay [2] (setting [4]).

On to `OC1c2cnccc2CCC1C1c2ccccc2-c2cncn21` (single isomer, unassigned) [Example 04e], for which the negative logarithm of the EC50 (pEC50) in assay [1] was 5.92; in assay [2] (setting [3]), 7.31; in assay [2] (setting [4]), 7.31.

As for `OC1c2cnncc2CCC1C1c2ccccc2-c2cncn21` (single isomer, unassigned) [Example 112b], the values for the pEC50 in assay [1], in assay [2] (setting [3]) and in assay [2] (setting [4]) were 4.82, 6.62 and 6.62, respectively.

As for `NS(=O)(=O)N1CCC(O)C(C2c3ccccc3-c3cncn32)CC1` (single isomer, unassigned) [Example 101d, 4-hydroxy-5-(5H-imidazo[5,1-a]isoindol-5-yl)azepane-1-sulfonamide], the values for the negative-log EC50 (pEC50) in assay [1], in assay [2] (setting [3]) and in assay [2] (setting [4]) were 4.68, 6.11 and 6.11, respectively.

With `CC1(C)C[C@@H](O)[C@@H]1[C@H]1c2ccccc2-c2cncn21` [Example 22b, (1R,2S)-2-((S)-5H-imidazo[5,1-a]isoindol-5-yl)-3,3-dimethylcyclobutan-1-ol], the negative logarithm of the EC50 (pEC50) in assay [1] is 5.70; in assay [2] (setting [3]) it was 7.80; in assay [2] (setting [4]), 7.80.

Take `O[C@@H]1c2ccnn2CC[C@H]1[C@H]1c2ccccc2-c2cncn21` [Example 56a, (4S,5S)-5-((S)-5H-imidazo[5,1-a]isoindol-5-yl)-4,5,6,7-tetrahydropyrazolo[1,5-a]pyridin-4-ol]: the pEC50 in assay [1] was 5.35; in assay [2] (setting [3]) it was 6.82; in assay [2] (setting [4]) it was 6.82.

As for `Cn1ncc2c1CCC(C1c3ccccc3-c3cncn31)C2O` (single isomer, unassigned) [Example 93a], the pEC50 in assay [1] was 4.89; in assay [2] (setting [3]) it was 6.42; in assay [2] (setting [4]), 6.42.

Consider `O[C@@H]1CC[C@H]1[C@H]1c2ccccc2-c2cncn21` [Example 01d, (1R,2S)-2-((S)-5H-imidazo[5,1-a]isoindol-5-yl)cyclobutan-1-ol], for which the pEC50 in assay [1] is 5.62; in assay [2] (setting [3]) it was 7.43; in assay [2] (setting [4]) it was 7.43.

On to `OC1c2cncnc2CCC1C1c2ccccc2-c2cncn21` (single isomer, unassigned) [Example 94c], for which the results for the negative-log EC50 (pEC50) in assay [1], in assay [2] (setting [3]) and in assay [2] (setting [4]) were 5.08, 6.96 and 6.96, respectively.

For `NC(=O)c1nc2c(s1)CCC(C1c3ccccc3-c3cncn31)C2O` (single isomer, unassigned) [Example 149b], the figures for the pEC50 in assay [1], in assay [2] (setting [3]) and in assay [2] (setting [4]) were 5.68, 7.26 and 7.26, respectively.

Take `C[C@H](O)[C@H]1c2ccccc2-c2cncn21` [Example 42c, (S)-1-((R)-5H-imidazo[5,1-a]isoindol-5-yl)ethan-1-ol]: the values for the negative logarithm of the EC50 (pEC50) in assay [1], in assay [2] (setting [3]) and in assay [2] (setting [4]) were 5.30, 6.60 and 6.60, respectively.

For `Cn1cc2c(n1)CCC(C1c3ccccc3-c3cncn31)C2O` (single isomer, unassigned) [Example 130d], the pEC50 is 5.74 in assay [1], 7.06 in assay [2] (setting [3]) and 7.06 in assay [2] (setting [4]).
